Assays:
[1] = target: T1, c-fms intracellular domain (Homo sapiens, UniProt P07333); test: c-fms protein kinase assay; type: biochemical; details: 1.7 μM ATP, 90 min at room temperature; read-out: Kinase inhibition c-fms (IC50)
T1 construct: The c-fms intracellular domain was expressed from a baculovirus expression system, as an amino-terminal GST fusion protein; GST (N); made in house; host or cells: baculovirus expression system
T1 sequence (P07333 539-972 limits assumed): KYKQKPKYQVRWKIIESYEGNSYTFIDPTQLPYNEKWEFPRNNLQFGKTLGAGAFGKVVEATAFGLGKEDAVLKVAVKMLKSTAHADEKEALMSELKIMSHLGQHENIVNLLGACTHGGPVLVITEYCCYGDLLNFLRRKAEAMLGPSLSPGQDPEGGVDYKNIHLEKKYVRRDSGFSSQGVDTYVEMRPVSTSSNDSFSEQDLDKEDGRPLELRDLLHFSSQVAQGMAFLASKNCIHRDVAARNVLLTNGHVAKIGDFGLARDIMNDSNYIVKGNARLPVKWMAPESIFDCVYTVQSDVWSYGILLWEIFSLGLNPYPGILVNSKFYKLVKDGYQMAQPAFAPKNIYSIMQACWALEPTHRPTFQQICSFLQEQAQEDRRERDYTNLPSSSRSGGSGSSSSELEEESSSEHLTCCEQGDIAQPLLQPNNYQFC
Procedure: c-fms protein kinase assays utilized the peptide substrate, biotin-[…]-NH2, as the phosphoryl group acceptor. The c-fms intracellular domain was expressed from a baculovirus expression system, as an amino-terminal GST fusion protein, and purified to homogeneity using Glutathione agarose from Sigma Chemical Co. Maximum activation of the enzyme was achieved by preactivation at room temperature for 120 min in the presence of 100 μM ATP and 15 mM MgCl2, This enzyme stock was diluted to 150 nM prior to using in the assay. Typically assays were performed in white, opaque, 96-well plates in a 45 ul assay volume including 15 ul 6% DMSO, with or without compounds, 15 ul of the preactivated, diluted enzyme, and 15 ul of a substrate mixture. Reactions contained 50 mM HEPES, pH 7.5, 1.7 μM ATP, 15 mM MgCl2, 3 μM peptide, 2.5 mM DTT, 50 mM NaCl and 0.15 uCi/assay [^32P]ATP. The controls were reactions in the presence (negative controls) or absence (positive controls) of 50 mM EDTA. Reactions were allowed to proceed for 90 min at room temperature. The reaction products were quantified using Scintillation Proximity technolgy. […] Plates were sealed and counted in a Packard Topcount scintillation counter. […]

[2] = system: human umbilical vein endothelial cells (HUVECs); test: HUVEC BrdU incorporation, VEGF stimulation; type: cell-based; details: 20 ng/ml VEGF, 72 hrs; read-out: Inhibition of BrdU incorporation in HUVEC cells, VEGF stimulation (IC50)
[3] = system: human umbilical vein endothelial cells (HUVECs); test: HUVEC BrdU incorporation, bFGF stimulation; type: cell-based; details: 0.3 ng/ml bFGF, 72 hrs; read-out: Inhibition of BrdU incorporation in HUVEC cells, BFGF Stimulation (IC50)

IC50 [1]: > 100 nM
Structure (SMILES): O=C1Nc2ccc3ncccc3c2/C1=C/Nc1ccc(CCO)cc1 [Example 32]
IC50 [2]: 10 to 500 nM | IC50 [3]: 1100 to 5000 nM

— patent US6498176B1, “3-(anilinomethylene) oxindoles as protein tyrosine kinase and protein serine/threonine kinase inhibitors” (SmithKlineBeecham Corporation, priority 1999, dated 2002)
